Test results from patent publication US6291461A, “Stephacidin antitumor antibiotics” (Bristol-Myers Squibb Company, priority 1999, dated 2001).

Tests used:
human tumor cell lines = assay: In vitro cytotoxicity against several human tumor cell lines; type: cell-based
Experimental: (§1) In vitro cytotoxicity was assessed in human carcinoma cells by the MTS (3-(4,5-dimethylthiazol-2-yl)-5-(3-carboxymethoxyphenyl)-2-(4-sulphenyl)-2H-tetrazolium, inner salt) assay (5). Cells were plated at 4,000 cell/well in 96 well microtiter plates and 24 hours later drugs were added and serial diluted. The cells were incubated at 37° form 72 hours at which time the tetrazolium dye, MTS at 333 μg/ml (final concentration),in combination with the electron coupling agent phenazine methosulfate at 25 μM (final concentration) was added. A dehydrogenase enzyme in live cells reduces the MTS to a form that absorbs light at 492 nm which can be quantitated spectrophotometrically. The greater the absorbance the greater the number of live cells. The results are expressed as an IC50, which is the drug concentration required to inhibit cell proliferation (i.e. absorbance at 492 nm) to 50% of that of untreated control cells.

LNCaP cells = assay: Apoptosis determination (TUNEL assay), LNCaP; type: cell-based, human; conditions: for % of LNCaP Cells in Apoptosis: 24 h treatment; for induction of apoptosis: testosterone sensitive (LNCaP) cells
Experimental: (§2) Cells were plated, incubated overnight, treated with compound for 24 hours then harvested by trypsinization. For cell cycle analysis cells were trypsinized, permeated, stained with 50 ug/ml propidium iodide and analyzed by FACS. For apoptosis evaluation (TUNEL assay) cells were permeated and reacted with TdT and fluoresceinated dUTP for 3 hours following the procedure recommended by the APO-Direct kit (Pharmingen).

[1] = tested on: HCT116/mdr+ colon, overexpresses Mdr+; assay: In vitro cytotoxicity (MTS assay), HCT116/mdr+; type: cell-based; conditions: Homo sapiens, HCT-116, 72 h
Experimental: as §1

[2] = tested on: LNCaP prostate, testosterone sensitive; assay: In vitro cytotoxicity (MTS assay), LNCaP; type: cell-based, human; conditions: for IC50: Homo sapiens, LNCaP, 72 h
Experimental: as §1

[3] = tested on: HCT116/Topo colon, resistant to etoposide; assay: In vitro cytotoxicity (MTS assay), HCT116/Topo; type: cell-based; conditions: Homo sapiens, HCT-116, 72 h
Experimental: as §1

[4] = tested on: MCF-7 breast, estradiol sensitive; assay: In vitro cytotoxicity (MTS assay), MCF-7; type: cell-based; conditions: Homo sapiens, MCF7; MCF-7, 72 h
Experimental: as §1

[5] = tested on: PC3 prostate, testosterone independent; assay: In vitro cytotoxicity (MTS assay), PC3; type: cell-based; conditions: Homo sapiens; PC3, 72 h
Experimental: as §1

[6] = tested on: A2780/DDP ovarian, mutp53/bcl2+; assay: In vitro cytotoxicity (MTS assay), A2780/DDP; type: cell-based; conditions: Homo sapiens, 72 h
Experimental: as §1

[7] = tested on: SKBR3 breast, estradiol-independent; assay: In vitro cytotoxicity (MTS assay), SKBR3; type: cell-based; conditions: Homo sapiens, SK-BR-3; SKBR3, 72 h
Experimental: as §1

LX-1 lung, sensitive = assay: In vitro cytotoxicity (MTS assay), LX-1; type: cell-based; conditions: Homo sapiens; LX-1, 72 h
Experimental: as §1

HCT116 colon, parental = assay: In vitro cytotoxicity (MTS assay), HCT116; type: cell-based; conditions: Homo sapiens, HCT-116; HCT116, 72 h
Experimental: as §1

[8] = tested on: A2780/Tax ovarian, Taxol resistant; assay: In vitro cytotoxicity (MTS assay), A2780/Tax; type: cell-based; conditions: Homo sapiens, 72 h
Experimental: as §1

A2780 ovarian, parental = assay: In vitro cytotoxicity (MTS assay), A2780; type: cell-based; conditions: Homo sapiens, A2780, 72 h
Experimental: as §1

A2780 cells = assay: Apoptosis determination (TUNEL assay), A2780; type: cell-based, human; conditions: for % of A2780 Cells in Apoptosis: 24 h treatment; for induction of apoptosis: (A2780)
Experimental: as §2

Solubility = type: physicochemical
[9] = tested on: tubulin or topoisomerase II; assay: Mechanism of action: tubulin or topoisomerase II
p53, mdr or bcl2 = assay: Mechanism of action: mediation by p53, mdr or bcl2; type: cell-based

With `CC1(C)C=Cc2c(ccc3c4c([nH]c23)C(C)(C)C2CC35CCCN3C(=O)C2(C4)NC5=O)O1` (stereo not shown) [Stephacidin A] the “in vivo criteria for acceptable activity” value (human tumor cell lines; potency judged against applicant's criteria) was “within our in vivo criteria for acceptable activity”, the fold less potent (human tumor cell lines; relative potency in vitro, versus the other stephacidin) was 10 fold and the in vitro cytotoxicity (human tumor cell lines; several human tumor cell lines (Table 3)) was “potent in vitro cytotoxicity”. The “% of LNCaP Cells in Apoptosis” value (LNCaP cells; 0.1 x 72 hour cytotoxic IC50) was 0.02%, the “% of LNCaP Cells in Apoptosis” value (LNCaP cells; 1 x 72 hour cytotoxic IC50) was 0.00% and the “% of LNCaP Cells in Apoptosis” value (LNCaP cells; 5 x 72 hour cytotoxic IC50) was 0.15%. For the same compound, the “% of LNCaP Cells in Apoptosis” value (LNCaP cells; 10 x 72 hour cytotoxic IC50) was 5.75%, the “% of LNCaP Cells in Apoptosis” value (LNCaP cells; 20 x 72 hour cytotoxic IC50) was 11.81% and the induction of apoptosis (LNCaP cells) was “potent inducers of apoptosis”. The IC50 [1] was 6700 nM, the IC50 [2] was 1000 nM and the IC50 [3] was 13100 nM. For the same compound, the IC50 [4] was 4200 nM, the IC50 [5] was 2100 nM and the IC50 [6] was 6800 nM. It also gave an IC50 [7] of 2150 nM, an IC50 (LX-1 lung, sensitive) of 4220 nM and an IC50 (HCT116 colon, parental) of 2100 nM. The IC50 [8] was 3600 nM, the IC50 (A2780 ovarian, parental) was 4000 nM and the “% of A2780 Cells in Apoptosis” value (A2780 cells; 0.1 x 72 hour cytotoxic IC50) was 1%. For the same compound, the “% of A2780 Cells in Apoptosis” value (A2780 cells; 1 x 72 hour cytotoxic IC50) was “.8%”, the “% of A2780 Cells in Apoptosis” value (A2780 cells; 5 x 72 hour cytotoxic IC50) was 21% and the “% of A2780 Cells in Apoptosis” value (A2780 cells; 10 x 72 hour cytotoxic IC50) was 14%. For the same compound, the “% of A2780 Cells in Apoptosis” value (A2780 cells; 20 x 72 hour cytotoxic IC50) was 15% and the induction of apoptosis (A2780 cells) was “potent inducers of apoptosis”.

In the case of `CC1(C)C=Cc2c(ccc3c2[N+]([O-])=C2C(C)(C)C4CC56CCCN5C(=O)C4(NC6=O)C4N5C(=O)C67CCCN6C(=O)C56C(C7)C(C)(C)c5c(c7ccc8c(c7n5O)C=CC(C)(C)O8)C6C234)O1` (stereo not shown) [Stephacidin B], the “% of LNCaP Cells in Apoptosis” value (LNCaP cells; 0.1 x 72 hour cytotoxic IC50) is reported as 0.02%, the “% of LNCaP Cells in Apoptosis” value (LNCaP cells; 1 x 72 hour cytotoxic IC50) is reported as 0.00% and the “% of LNCaP Cells in Apoptosis” value (LNCaP cells; 5 x 72 hour cytotoxic IC50) is reported as 0.05%. The “% of LNCaP Cells in Apoptosis” value (LNCaP cells; 10 x 72 hour cytotoxic IC50) was 4.52%, the “% of LNCaP Cells in Apoptosis” value (LNCaP cells; 20 x 72 hour cytotoxic IC50) was 11.13% and the induction of apoptosis (LNCaP cells) was “potent inducers of apoptosis”. For the same compound, the IC50 [1] was 460 nM, the Solubility (Solubility; hexane) was “insoluble” and the Solubility (Solubility; methanol, chloroform, acetone, acetonitrile, dimethyl sulfoxide, acetonitrile/methanol (1:1)) was “Soluble”. For the same compound, the Solubility (Solubility; water) was “insoluble”, the “tubulin or topoisomerase II mediated” value [9] was “not tubulin or topoisomerase II mediated” and the IC50 [2] was 60 nM. For the same compound, the “selectivity in testosterone dependent LNCaP cells” value ([2]; LNCaP versus other cell lines) was “Good selectivity”, the IC50 [3] was 420 nM and the IC50 [4] was 270 nM. The IC50 [5] was 370 nM, the “effects mediated by p53, mdr or bcl2” value (p53, mdr or bcl2) was “not mediated by p53, mdr or bcl2” and the IC50 [6] was 430 nM. For the same compound, the IC50 [7] was 320 nM, the IC50 (LX-1 lung, sensitive) was 380 nM and the IC50 (HCT116 colon, parental) was 460 nM. The IC50 [8] was 260 nM, the IC50 (A2780 ovarian, parental) was 330 nM and the “% of A2780 Cells in Apoptosis” value (A2780 cells; 0.1 x 72 hour cytotoxic IC50) was “.5%”. The “% of A2780 Cells in Apoptosis” value (A2780 cells; 1 x 72 hour cytotoxic IC50) was “.2%”, the “% of A2780 Cells in Apoptosis” value (A2780 cells; 5 x 72 hour cytotoxic IC50) was 1.0% and the “% of A2780 Cells in Apoptosis” value (A2780 cells; 10 x 72 hour cytotoxic IC50) was 33%. For the same compound, the “% of A2780 Cells in Apoptosis” value (A2780 cells; 20 x 72 hour cytotoxic IC50) was 5% and the induction of apoptosis (A2780 cells) was “potent inducers of apoptosis”.
